Test results reported in PubChem BioAssay (NCI).
Several values for one entry are separate records, joined by “and”; a condition that tells them apart may be missing. Equal entries are not always repeated.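 1) Cells in 96-well plates. 2) Compound, 48 h, 5 concentrations. 3) Linear interpolation between surrounding doses. 4) Unreached endpoint = highest concentration. Abbreviation: GI50, concentration required for 50% inhibition of growth. Definition used: TGI = concentration required for complete inhibition of growth.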

How the values were obtained:
Assay in all cases: NCI anticancer screen, dose series, 48 h
OVCAR-5 ovarian = system: OVCAR-5 ovarian
IGROV1 ovarian = system: IGROV1 ovarian
SK-MEL-28 melanoma = system: SK-MEL-28 melanoma
SNB-19 CNS = system: SNB-19 CNS
NCI-H522 lung = system: NCI-H522 lung
NCI-H23 lung = system: NCI-H23 lung
SF-295 CNS = system: SF-295 CNS
A549 NSCLC = system: A549 NSCLC
SNB-75 CNS = system: SNB-75 CNS
SN12C renal = system: SN12C renal

SMILES	TGI (OVCAR-5 ovarian)	TGI (IGROV1 ovarian)	TGI (SK-MEL-28 melanoma)	TGI (SNB-19 CNS)	TGI (NCI-H522 lung)	TGI (NCI-H23 lung)	TGI (SF-295 CNS)	TGI (A549 NSCLC)	TGI (SNB-75 CNS)	TGI (SN12C renal)	GI50 (OVCAR-5 ovarian) [µM]	GI50 (IGROV1 ovarian) [µM]	GI50 (SK-MEL-28 melanoma) [µM]	GI50 (SNB-19 CNS) [µM]	GI50 (SF-295 CNS) [µM]	GI50 (A549 NSCLC) [µM]	GI50 (SNB-75 CNS) [µM]	GI50 (SN12C renal) [µM]	GI50 (NCI-H522 lung) [µM]	GI50 (NCI-H23 lung) [µM]
COC(=O)NC1C(C)OC(OC2C/C=C(/C)C3C=CC4C(OC5CC(OC6CC(OC7CC(O)C(O)C(C)O7)C(OC7CC(O)C(OC)C(C)O7)C(C)O6)C(O)C(C)O5)C(C)CC(C)C4C3(C)/C(O)=C3\C(=O)OC4(CC(C)C(CO)=CC4/C=C\2C)C3=O)CC1(C)[N+](=O)[O-] (stereo not drawn)	42.1 µM	34 µM	81.3 µM	> 100 µM	49.4 µM	41.5 µM	53.2 µM	> 100 µM	16.7 µM	> 100 µM										
CC1C(=O)C(C)C(c2ccco2)N(N=O)C1c1ccco1 (stereo not drawn)	> 100 µM	> 100 µM	> 100 µM	> 100 µM	> 100 µM	> 100 µM	> 100 µM	> 100 µM	> 100 µM	> 100 µM										
Nc1nc(OCC2CCCCC2)c2[nH]cnc2n1	53.1 µM	> 48.6 µM	99.2 µM	> 100 µM	60.1 µM	> 100 µM	> 75.6 µM	81.5 µM	> 81 µM	56.3 µM										
Cc1[nH]n(-c2ccccc2)c(=O)c1C(N(CCc1ccccc1)C1=NCC(C)S1)(C(F)(F)F)C(F)(F)F (stereo not drawn)	88 µM		51.2 µM	> 100 µM	28.2 µM	20 µM	84.2 µM	83.7 µM	50.1 µM	48.5 µM										
CC(=O)OCC1OC(Oc2cc(C)c(O)cc2C/C=C(\C)CC/C=C(\C)C[C@@H](C=C(C)C)OC(C)=O)C(O)C(OC(C)=O)C1OC(C)=O (stereo partly drawn)	> 50 µM	> 50 µM	> 50 µM	> 50 µM	> 50 µM	> 50 µM	> 50 µM	> 50 µM	48.2 µM	> 50 µM										
c1c2c(cc3c1OCO3)-c1cc3ccc4c(c3c[n+]1CC2)OCO4	> 12.5 µM	> 12.5 µM	> 12.5 µM	> 8.78 µM	1.8 µM	> 12.5 µM	3.52 µM	> 12.5 µM	> 8.5 µM	> 12.5 µM										
O=C(NC(Cc1ccc(I)cc1)C(=O)O)c1ccc(Cl)cc1 (stereo not drawn)	> 100 µM	> 100 µM	> 100 µM	> 100 µM	> 100 µM	> 100 µM	> 100 µM	> 100 µM	> 100 µM	> 100 µM										
CN(C)c1ccc(/C=c2/c3ccccc3n3c2cc(NC(=O)NCCC[N+](C)(C)C)[n+]3C)cc1	> 100 µM	46.9 µM	> 100 µM	> 100 µM	> 100 µM	> 100 µM	> 100 µM	> 100 µM												
Oc1ccc(-c2nc3cc(F)ccc3s2)cc1	58.4 µM	43.4 µM	42.8 µM	> 100 µM	30.7 µM	83.8 µM	48.6 µM	40.6 µM		53.3 µM										
CNC(C)Cc1ccccc1OC (stereo not drawn)	> 100 µM	> 100 µM	> 100 µM	> 100 µM	> 100 µM	> 100 µM	> 100 µM	> 100 µM	> 100 µM	> 100 µM										
C[n+]1c2ccccc2c(CNC(CS)C(=O)O)c2ccccc21 (stereo not drawn)	> 100 µM	67.2 µM		> 100 µM	34.8 µM	> 100 µM	63.4 µM	83.9 µM	47.7 µM	> 100 µM										
O=c1c2cc(S(=O)(=O)O)ccc2nc(COc2ccc(Oc3ccc(Cl)cc3Cl)cc2)n1C(=S)Nc1ccc(Cl)cc1	40.7 µM	> 100 µM		> 100 µM	39.8 µM	36.2 µM	39.6 µM	53.1 µM	41.5 µM	34.7 µM										
CCSc1nc(-c2cccs2)nc2ccc(I)cc12	> 100 µM	> 100 µM	> 100 µM	> 100 µM	> 100 µM	> 100 µM	> 100 µM	> 100 µM	> 100 µM	> 100 µM										
O=C1OC2(OC2c2ccc(Cl)cc2)c2ccccc21 (stereo not drawn)	> 100 µM	> 100 µM	> 100 µM	> 100 µM	> 100 µM		> 100 µM	> 100 µM	> 100 µM	> 100 µM										
COC(=O)/C=C1\CCCN1CCc1cc2c(cc1CC#N)OCO2	> 100 µM	> 100 µM	> 100 µM	> 100 µM	> 100 µM	> 100 µM	> 100 µM	> 100 µM	66.8 µM	> 100 µM										
COC(=O)c1ccccc1C1=C([N+](=O)[O-])C(c2cccc(Br)c2)C(C#N)=C(N)O1 (stereo not drawn)	> 100 µM	77.6 µM	> 100 µM	> 100 µM	29.2 µM	88.2 µM	> 100 µM	> 100 µM	92.6 µM	> 100 µM										
CC1(C=O)CCC23COC4(CCC5C6(C)CCC(OC7OCC(OC8OC(CO)C(O)C(OC9OC(CO)C(O)C(O)C9O)C8OC8OCC(O)C(O)C8O)C(O)C7OC7OC(CO)C(O)C(O)C7O)C(C)(C)C6CCC5(C)C4(C)CC2O)C3C1 (stereo not drawn)	2.55 µM	2.88 µM		1.09 µM	3.41 µM		2.23 µM	3.53 µM	2.51 µM											
COc1cc([N+](=O)[O-])ccc1NC(=O)c1cccc([N+](=O)[O-])c1O	> 100 µM	> 100 µM	> 100 µM	> 100 µM	39 µM	96.9 µM	81.6 µM	66.6 µM	70.5 µM	71.8 µM										
CC1(O)COCCCCOc2c(CN)cccc2NC(=O)c2nc(cnc2N)-c2ccc(cc2)S(=O)(=O)C(C)(C)C1 (stereo not drawn)	3.56 µM	2.7 µM	3.47 µM	2.74 µM			2.84 µM	2.34 µM	1.94 µM	2.66 µM	2.04	1.28	1.83	1.33	1.43	0.29	0.17	1.27		
NCCNCCNc1ccc(NCCNCCN)c2c1C(=O)c1c(O)ccc(O)c1C2=O	> 100 µM	> 100 µM	> 100 µM	> 100 µM	> 100 µM	> 100 µM	> 100 µM	> 100 µM	> 100 µM	> 100 µM										
CCc1ccc2c(c1)C(=O)c1c-2n(CCCN)c(=O)c2cc([N+](=O)[O-])ccc12	3.59 µM	2.56 µM	3.2 µM	2.42 µM	2.7 µM	3.29 µM	2.47 µM			2.95 µM	2.07	1.22	1.68	1.17	1.07			1.48	1.23	1.81
CCOC(=O)Nc1cc2c(c(N)n1)N=C(c1ccc3ccccc3c1)CN2	> 56.8 µM	> 100 µM	> 100 µM		0.545 µM			23.8 µM		5.29 µM										
c1ccc([P+](c2ccccc2)(c2ccccc2)c2ccc(-c3ccc([P+](c4ccccc4)(c4ccccc4)c4ccccc4)cc3)cc2)cc1	> 100 µM	13.4 µM	> 100 µM	> 100 µM	64.4 µM	55.3 µM	76.9 µM	87.9 µM		97.1 µM										
CN(C)CCCN1c2ccc([N+](=O)[O-])cc2CCc2cc([N+](=O)[O-])ccc21	28.6 µM and 28 µM	28.9 µM and 29.1 µM	30 µM and 29.3 µM	32 µM and 29.1 µM	32.3 µM and 34 µM	33.7 µM and 34.9 µM	29.4 µM and 29.8 µM	32.7 µM and 31.5 µM	24.8 µM and 29.3 µM	29.3 µM and 28.4 µM										
CO/N=C(\C)c1cccc(Nc2nc3ccccc3c3occc23)c1	27.6 µM		27.6 µM	31 µM			25.9 µM	30 µM	29.1 µM	26.9 µM										
N=C(N)SCc1cccc([N+](=O)[O-])c1	> 100 µM	> 100 µM	98.9 µM		18.2 µM	> 83 µM	> 100 µM	> 100 µM	89 µM	> 96.1 µM										
CCO[C@]12CCC[C@H]1[C@@H]1C(=O)c3ccccc3C(=O)C1=C(C)O2	> 100 µM	> 100 µM	> 100 µM	> 100 µM	> 100 µM	> 100 µM	> 100 µM	> 100 µM	> 100 µM	> 100 µM										
O=C(CSc1nc2ccc(I)cc2c(=O)n1Cc1ccccc1)NN1C(=O)c2ccccc2C1=O	86.7 µM	64.2 µM	49.9 µM	57.3 µM	34.1 µM	44.7 µM	29.4 µM	72.5 µM	21.8 µM	57.3 µM										
CCOP(=O)(OCC)C(Nc1cccc(F)c1)c1ccc(N(C)C)cc1 (stereo not drawn)	> 100 µM	> 100 µM	> 100 µM	> 100 µM	> 100 µM	> 100 µM	> 100 µM	> 100 µM	> 100 µM	> 100 µM										
Cc1c2cc[n+](C)cc2c(C)c2c1oc1ccccc12	64 µM	52.6 µM	21.8 µM	4.27 µM	8.17 µM	11.2 µM	12.2 µM	36.5 µM	5.49 µM	4.57 µM										
